The subject of assay [1] is HepG2. The experiment in a line: Cytotoxicity against human adriamycin-resistant HepG2 cells measured after 48 hrs by MTT assay. Type of assay: functional, cell-based. The following applies: HepG2, 48 h.
Assay [2] in a line: Cytotoxicity against human Hep3B cells measured after 48 hrs by MTT assay. Type of assay: functional, cell-based, Hep 3B2.
Assay [3] has as its system HepG2. The experiment in a line: Cytotoxicity against human HepG2 cells measured after 48 hrs by MTT assay. Type of assay: functional, cell-based. The following applies: HepG2, 48 h.

14 molecules from ChEMBL document CHEMBL2311415, “Cytotoxic quassinoids from Ailanthus altissima” (Bioorg Med Chem Lett, 2013) can be followed below.

As for `CC(=O)O[C@@H]1C(=O)[C@H](C)[C@@H]2CC(=O)O[C@@H]3C[C@H]4[C@H](C)C[C@H](O)C(=O)[C@]4(C)[C@@H]1[C@@]32C`, the half-maximal inhibitory concentration (IC50) (in the assay on HepG2 [1]; in assay [2]; with HepG2 [3]) was over 50 µM throughout.

Regarding `C/C=C(/C)C(=O)O[C@@H]1[C@H]2C(C)=C[C@H](O)[C@@H](O)[C@]2(C)[C@H]2[C@@]3(O)OC[C@@]24[C@@H]1OC(=O)C[C@H]4[C@@H](C)[C@H]3O`, the IC50 with HepG2 [1] is over 50 µM; in assay [2], 2.43 µM; with HepG2 [3] it was 10.5 µM.

As for `C=C1[C@@H](O)[C@]2(O)OC[C@@]34[C@H]1[C@@H](OC(=O)[C@](C)(O)CC)C(=O)O[C@@H]3C[C@H]1C(C)=C[C@H](O)[C@@H](O)[C@]1(C)[C@@H]24`, the 50% inhibitory concentration (IC50) with HepG2 [1] was 19.6 µM; in assay [2], 0.98 µM; with HepG2 [3] it was 1.15 µM.

In the case of `C/C=C(/C)C(=O)O[C@@H]1[C@H]2C(C)=CC(=O)[C@@H](O)[C@]2(C)[C@H]2[C@@]3(O)OC[C@@]24[C@@H]1OC(=O)C[C@H]4[C@@H](C)[C@H]3O`, the figures for the IC50 (with HepG2 [1]; in assay [2]; in the assay with HepG2 [3]) were 16.9 µM, 0.05 µM and 0.55 µM, respectively.

Consider `C=C1[C@@H](O)[C@@]2(O)OC[C@@]34[C@H]1[C@@H](OC(=O)C(O)(CC)COC(=O)/C(C)=C\C)C(=O)O[C@@H]3C[C@H]1C(C)=CC(=O)[C@@H](O)[C@]1(C)[C@@H]24` (stereo partly specified) [ALTISSINOL A], for which the figures for the half-inhibitory concentration (IC50) (in the assay on HepG2 [1]; in assay [2]; with HepG2 [3]) were over 50 µM, 0.37 µM and 0.28 µM, respectively.

Regarding `C=C1[C@@H](O)[C@@]2(O)OC[C@@]34[C@H]1[C@@H](OC(=O)C(C)CC)C(=O)O[C@@H]3C[C@H]1C(C)=C[C@H](O)[C@@H](O)[C@]1(C)[C@@H]24` (stereo partly specified) [ALTISSINOL B], the half-inhibitory concentration (IC50) with HepG2 [1] was over 50 µM; in assay [2] it was 2.36 µM; with HepG2 [3], 1.22 µM.

With `C[C@@H]1C[C@H](O)C(=O)[C@]2(C)[C@H]3[C@H](O)C(=O)[C@H](C)[C@@H]4CC(=O)O[C@H](C[C@@H]12)[C@]34C` [AMAROLIDE], the 50% inhibitory concentration (IC50) (in the assay with HepG2 [1]; in assay [2]; in the assay on HepG2 [3]) was over 50 µM in each case.

Turning to `CC1=CC(=O)[C@@H](O)[C@]2(C)[C@H]3[C@@]4(O)OC[C@@]35[C@@H](C[C@@H]12)OC(=O)C[C@H]5[C@@H](C)[C@H]4O` [CHAPARRINONE], the IC50 with HepG2 [1] is over 50 µM; in assay [2] it was 2.17 µM; in the assay on HepG2 [3], 1.2 µM.

As for `C[C@H]1[C@H](O)C(=O)[C@@H]2[C@@]3(C)[C@H](O)[C@@H](O)C[C@@H](C)[C@@H]3C[C@H]3OC(=O)C[C@@H]1[C@@]23C` [CHAPARROLIDE], the IC50 (in the assay on HepG2 [1]; in assay [2]; in the assay on HepG2 [3]) was over 50 µM in each case.

With `COc1cccc2c1C(=O)c1c(O)c3c(c(O)c1C2=O)C[C@@](O)(C(=O)CO)C[C@@H]3O[C@H]1C[C@H](N)[C@H](O)[C@H](C)O1` [DOXORUBICIN], the concentration for half-maximal inhibition (IC50) in the assay with HepG2 [1] turned out to be 85.5 µM; in assay [2] it was 0.29 µM.

`CC[C@](C)(O)C(=O)O[C@H]1C(=O)O[C@@H]2C[C@H]3C(C)=C[C@H](O)[C@@H](O)[C@]3(C)[C@H]3[C@]4(O)OC[C@]32[C@@H]1[C@@H](C)[C@H]4O` [GLAUCARUBIN]: the IC50 in the assay with HepG2 [1] is over 50 µM; in assay [2], 23.5 µM; in the assay on HepG2 [3] it was 35.6 µM.

With `C=C1[C@H](O)[C@]2(O)OC[C@]34[C@H]2[C@@]2(C)[C@H](O)[C@@H](O)C=C(C)[C@@H]2C[C@H]3OC(=O)C[C@@H]14` [SHINJULACTONE A], the figures for the half-inhibitory concentration (IC50) (in the assay with HepG2 [1]; in assay [2]; in the assay with HepG2 [3]) were over 50 µM, 8.01 µM and 4.67 µM, respectively.

Consider `CC1=CC(=O)O[C@@H]1[C@@]1(C)C[C@H]2OC(=O)C[C@H]3[C@@H](C)C(=O)C(O)=C1[C@@]23CO` [SHINJULACTONE B], for which the half-maximal inhibitory concentration (IC50) (in the assay on HepG2 [1]; in assay [2]; in the assay on HepG2 [3]) was over 50 µM throughout.

Regarding `CC1=CC(=O)[C@]2(O)[C@@]3(O)C(=O)[C@@H]4[C@]5(CO)[C@H]6CC(=O)O[C@@H]5C[C@@]1([C@@]42C)[C@]63C` [SHINJULACTONE C], the IC50 (in the assay with HepG2 [1]; in assay [2]; in the assay on HepG2 [3]) was over 50 µM throughout.
